Data on 49 molecules can be found in the Kinase Knowledgebase extract (Sharma et al. 2016).

The structures appear in SMILES notation. A value given as a limit tells only on which side of the number the result lay.

The target in the first assay is EGFR (human), P00533 [WT].
Chain of EGFR (human), P00533 [WT] (P00533 whole entry, looked up): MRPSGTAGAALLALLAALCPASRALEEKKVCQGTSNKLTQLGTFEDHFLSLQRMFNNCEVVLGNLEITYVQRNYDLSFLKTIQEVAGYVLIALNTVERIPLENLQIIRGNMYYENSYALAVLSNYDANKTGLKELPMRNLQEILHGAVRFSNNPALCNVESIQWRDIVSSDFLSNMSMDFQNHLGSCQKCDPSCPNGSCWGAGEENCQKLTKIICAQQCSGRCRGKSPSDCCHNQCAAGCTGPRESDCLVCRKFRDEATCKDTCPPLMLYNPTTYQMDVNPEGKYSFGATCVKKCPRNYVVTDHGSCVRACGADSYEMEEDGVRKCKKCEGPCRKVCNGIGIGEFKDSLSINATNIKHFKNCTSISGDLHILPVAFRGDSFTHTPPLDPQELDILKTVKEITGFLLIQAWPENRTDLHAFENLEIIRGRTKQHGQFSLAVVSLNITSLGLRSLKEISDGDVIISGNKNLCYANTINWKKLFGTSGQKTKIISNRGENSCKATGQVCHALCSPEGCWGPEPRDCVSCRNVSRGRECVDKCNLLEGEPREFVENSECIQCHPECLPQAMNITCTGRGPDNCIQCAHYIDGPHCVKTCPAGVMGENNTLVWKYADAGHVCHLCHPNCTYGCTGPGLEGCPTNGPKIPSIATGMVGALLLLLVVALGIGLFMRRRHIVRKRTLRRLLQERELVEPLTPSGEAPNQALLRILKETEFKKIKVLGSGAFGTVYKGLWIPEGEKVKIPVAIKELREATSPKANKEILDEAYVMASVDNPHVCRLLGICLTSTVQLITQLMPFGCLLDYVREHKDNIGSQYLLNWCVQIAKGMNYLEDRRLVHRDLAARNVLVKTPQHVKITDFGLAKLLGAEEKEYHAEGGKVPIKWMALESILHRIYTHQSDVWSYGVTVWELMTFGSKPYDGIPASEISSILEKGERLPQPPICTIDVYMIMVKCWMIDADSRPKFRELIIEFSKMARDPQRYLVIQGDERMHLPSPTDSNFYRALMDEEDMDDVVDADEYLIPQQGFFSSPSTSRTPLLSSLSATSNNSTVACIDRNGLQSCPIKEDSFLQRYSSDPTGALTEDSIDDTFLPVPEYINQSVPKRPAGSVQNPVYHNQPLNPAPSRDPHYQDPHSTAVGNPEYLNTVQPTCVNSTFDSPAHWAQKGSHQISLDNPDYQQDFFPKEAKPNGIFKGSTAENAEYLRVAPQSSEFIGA
Settings: not given
For the molecule `C=CC(=O)Nc1cccc(Nc2nc(Nc3ccc(N4CCN(C)CC4)cc3)nc3ccsc23)c1`, the IC50 was 100 to 1000 nM.

As to `C=CC(=O)Nc1cccc(Oc2nc(Nc3ccc(N4CCC(N5CCCCC5)CC4)cc3)nc3ccsc23)c1`, the concentration for half-maximal inhibition (IC50) is 100 to 1000 nM.

In another assay the test system is EGFR (Human), P00533 [Assessment of Proliferation in EGFR DelE746_A750 Mutant Expressing HCC827 Cells].
Chain of EGFR (Human), P00533 [Assessment of Proliferation in EGFR DelE746_A750 Mutant Expressing HCC827 Cells] (P00533 whole entry, looked up, stated change not applied): as the sequence (P00533 whole entry, looked up) above
Settings: not given
Molecule `C=CC(=O)Nc1cccc(Oc2nc(Nc3ccc(N4CCN(C5CCCCC5)CC4)cc3)nc3ccsc23)c1` had a GI50 of no more than 50 nM.

As for `C=CC(=O)Nc1cccc(Nc2nc(Nc3ccc(N4CCN(C)CC4)cc3)nc3ccsc23)c1`, the GI50 was no more than 50 nM.

As for `C=CC(=O)Nc1cccc(Oc2nc(Nc3ccc(N4CCN(C)CC4)cc3)nc3ccoc23)c1`, the GI50 was no more than 50 nM.

Take `C=CC(=O)Nc1cccc(Oc2nc(Nc3ccc(N4CCN(C(C)C)CC4)cc3)nc3ccoc23)c1`: the GI50 was no more than 50 nM.

Take `C=CC(=O)Nc1cccc(Oc2nc(Nc3ccc(N4CCN(CC)CC4)cc3)nc3ccsc23)c1`: the 50% growth inhibitory concentration (GI50) was no more than 50 nM.

On to `C=CC(=O)Nc1cccc(Oc2nc(Nc3ccc(N4CCC(N5CCCCC5)CC4)cc3)nc3ccsc23)c1`, for which the GI50 is no more than 50 nM.

Molecule `C=CC(=O)Nc1cccc(Oc2nc(Nc3ccc(C(=O)NC4CCN(C(C)C)CC4)cc3)nc3ccsc23)c1` came in with a GI50 of no more than 50 nM.

Regarding `C=CC(=O)Nc1cccc(Oc2nc(Nc3ccc(OCCOC)c(F)c3)nc3ccsc23)c1`, the 50% growth inhibitory concentration (GI50) is 50 to 100 nM.

Molecule `C=CC(=O)Nc1cccc(Oc2nc(Nc3ccc(NC4CCN(C)CC4)cc3)nc3ccsc23)c1` returned a 50% growth inhibitory concentration (GI50) of no more than 50 nM.

Take `C=CC(=O)Nc1cccc(Oc2nc(Nc3ccc(N4CCC(n5ccnc5)C4)cc3)nc3ccsc23)c1` (stereo not drawn): the concentration for 50% growth inhibition (GI50) was no more than 50 nM.

In the case of `C=CC(=O)Nc1cccc(Oc2nc(Nc3ccc(C4CCN(C)CC4)cc3)nc3ccsc23)c1`, the concentration for 50% growth inhibition (GI50) was no more than 50 nM.

`C=CC(=O)Nc1cccc(Oc2nc(Nc3ccc(N4CC(C)OC(C)C4)c(F)c3)nc3ccsc23)c1` (stereo not drawn) registered a GI50 of 50 to 100 nM.

As to `C=CC(=O)Nc1cccc(Oc2nc(Nc3ccc4c(ccn4C)c3)nc3ccsc23)c1`, the GI50 lay within 50 to 100 nM.

`C=CC(=O)Nc1cccc(Oc2nc(Nc3ccc(CN(C)C)cc3)nc3ccsc23)c1` showed a GI50 of no more than 50 nM.

`C=CC(=O)Nc1cccc(Oc2nc(Nc3ccc(NC(=O)N4CCN(C)CC4)c(F)c3)nc3ccsc23)c1` had a GI50 of no more than 50 nM.

Consider `C=CC(=O)Nc1cccc(Oc2nc(Nc3ccc(N4CCN(C5CCN(C)CC5)CC4)cc3)nc3ccsc23)c1`, for which the GI50 is no more than 50 nM.

The molecule `C=CC(=O)Nc1cccc(Oc2nc(Nc3ccc(C4CCN(C(C)C)CC4)cc3)nc3ccsc23)c1` had a concentration for 50% growth inhibition (GI50) of no more than 50 nM.

In the case of `C=CC(=O)Nc1cccc(Oc2nc(Nc3ccc(N4CCC(N5CCCCC5)CC4)c(F)c3)nc3ccsc23)c1`, the concentration for 50% growth inhibition (GI50) is no more than 50 nM.

Take `C=CC(=O)Nc1cccc(Oc2nc(Nc3ccc(N4CCN(C)CC4)cc3F)nc3ccsc23)c1`: the concentration for 50% growth inhibition (GI50) was 50 to 100 nM.

In turn, `C=CC(=O)Nc1cccc(Oc2nc(Nc3ccc(C4=CCN(C)CC4)cc3)nc3ccsc23)c1` displayed a 50% growth inhibitory concentration (GI50) of no more than 50 nM.

Consider `C=CC(=O)Nc1cccc(Oc2nc(Nc3ccc(N4CCCCC4)cc3)nc3ccsc23)c1`, for which the 50% growth inhibitory concentration (GI50) was in the range of 100 to 1000 nM.

For the molecule `C=CC(=O)Nc1cccc(Oc2nc(Nc3ccc(N4CCN(S(=O)(=O)N(C)C)CC4)cc3)nc3ccsc23)c1`, the 50% growth inhibitory concentration (GI50) was in the range of 50 to 100 nM.

As to `C=CC(=O)Nc1cccc(Oc2nc(Nc3ccc(NC(=O)CCN4CCCC4)cc3)nc3ccsc23)c1`, the 50% growth inhibitory concentration (GI50) was no more than 50 nM.

`C=CC(=O)Nc1cccc(Oc2nc(Nc3ccc(C(=O)OCCCN(C)C)cc3)nc3ccsc23)c1` yielded a GI50 of 50 to 100 nM.

The molecule `C=CC(=O)Nc1cccc(Oc2nc(Nc3ccc(N4CCN(S(C)(=O)=O)CC4)cc3)nc3ccsc23)c1` returned a GI50 of 50 to 100 nM.

Molecule `C=CC(=O)Nc1cccc(Oc2nc(Nc3ccc(N4CCOCC4)c(F)c3)nc3ccsc23)c1` returned a concentration for 50% growth inhibition (GI50) of no more than 50 nM.

Regarding `C=CC(=O)Nc1ccc(F)c(Oc2nc(Nc3ccc(N4CCN(C)CC4)cc3)nc3ccsc23)c1`, the GI50 was no more than 50 nM.

`C=CC(=O)Nc1cccc(Oc2nc(Nc3ccc(NCCN(C)C)cc3)nc3ccsc23)c1` returned a GI50 of no more than 50 nM.

`C=CC(=O)Nc1cccc(Oc2nc(Nc3ccc(CCO)cc3)nc3ccsc23)c1` yielded a GI50 of no more than 50 nM.

`C=CC(=O)Nc1cccc(Oc2nc(Nc3ccc(N4CCC(CO)CC4)cc3)nc3ccsc23)c1` yielded a GI50 of no more than 50 nM.

The molecule `C=CC(=O)Nc1cccc(Nc2nc(Nc3ccc(CN4CCCCC4)cc3)nc3ccsc23)c1` returned a 50% growth inhibitory concentration (GI50) of no more than 50 nM.

As to `C=CC(=O)Nc1cccc(Oc2nc(Nc3ccc(CCN4CCN(CC)CC4)cc3)nc3ccsc23)c1`, the GI50 was 50 to 100 nM.

On to `C=CC(=O)Nc1cccc(Oc2nc(Nc3ccc(C(=O)NC4CCN(C)CC4)cc3)nc3ccsc23)c1`, for which the GI50 is no more than 50 nM.

Molecule `C=CC(=O)Nc1cccc(Oc2nc(Nc3ccc(OCCN4CCOCC4)c(OC)c3)nc3ccsc23)c1` came in with a GI50 of no more than 50 nM.

For `C=CC(=O)Nc1cccc(Oc2nc(Nc3ccc(N4CCN(C(C)C)CC4)cc3)nc3ccsc23)c1`, the concentration for 50% growth inhibition (GI50) is no more than 50 nM.

Turning to `C=CC(=O)Nc1cccc(Nc2nc(Nc3ccc(NC4CCN(C)CC4)c(F)c3)nc3ccsc23)c1`, the GI50 is no more than 50 nM.

Consider `C=CC(=O)Nc1cccc(Oc2nc(Nc3ccc(N4CCN(C(C)(C)C)CC4)cc3)nc3ccsc23)c1`, for which the 50% growth inhibitory concentration (GI50) is no more than 50 nM.

Molecule `C=CC(=O)Nc1cccc(Oc2nc(Nc3ccc(N4CCC(n5ccnc5)CC4)cc3)nc3ccsc23)c1` gave a GI50 of no more than 50 nM.

The molecule `C=CC(=O)Nc1cccc(Oc2nc(Nc3ccc(N4CCC(N5CCCC5)CC4)cc3)nc3ccsc23)c1` showed a concentration for 50% growth inhibition (GI50) of no more than 50 nM.

The molecule `C=CC(=O)Nc1cccc(Oc2nc(Nc3ccc(C4CCN(C)CC4)c(F)c3)nc3ccsc23)c1` had a 50% growth inhibitory concentration (GI50) of no more than 50 nM.

On to `C=CC(=O)Nc1cccc(Nc2nc(Nc3ccc(CCN4CCN(C)CC4)cc3)nc3ccsc23)c1`, for which the GI50 lay in the range of 50 to 100 nM.

`C=CC(=O)Nc1cccc(Oc2nc(Nc3ccc(CN4CCOCC4)cc3)nc3ccsc23)c1`: the GI50 lay within 50 to 100 nM.

As for `C=CC(=O)Nc1cccc(Oc2nc(Nc3ccc(C4CCN(C)CC4)c(F)c3)nc3ccoc23)c1`, the concentration for 50% growth inhibition (GI50) is no more than 50 nM.

On to `C=CC(=O)Nc1cccc(Oc2nc(Nc3ccc(CN4CCC(N(C)C)CC4)cc3)nc3ccoc23)c1`, for which the GI50 fell in the range of 50 to 100 nM.

Take `C=CC(=O)Nc1cccc(Oc2nc(Nc3ccc(CN4CCC(N5CCOCC5)CC4)cc3)nc3ccsc23)c1`: the concentration for 50% growth inhibition (GI50) was no more than 50 nM.

Consider `C=CC(=O)Nc1cccc(Oc2nc(Nc3ccc(C(=O)NCCN(C)C)cc3)nc3ccsc23)c1`, for which the concentration for 50% growth inhibition (GI50) was no more than 50 nM.

As to `C=CC(=O)Nc1cccc(Sc2nc(Nc3ccc(C4CCN(C)CC4)c(F)c3)nc3ccsc23)c1`, the GI50 was no more than 50 nM.

Regarding `C=CC(=O)Nc1cccc(Oc2nc(Nc3ccc(S(=O)(=O)NC4CC4)cc3)nc3ccsc23)c1`, the concentration for 50% growth inhibition (GI50) lay in the range of 50 to 100 nM.

In the case of `C=CC(=O)Nc1cccc(Oc2nc(Nc3ccc(CN4CCC(N(C)C)CC4)c(F)c3)nc3ccsc23)c1`, the GI50 was no more than 50 nM.

The test system of the next assay is EGFR (human), P00533 [WT]. To be noted: a431.
Molecule `C=CC(=O)Nc1cccc(Oc2nc(Nc3ccc(N4CCN(C5CCCCC5)CC4)cc3)nc3ccsc23)c1` registered a GI50 of 100 to 1000 nM.

`C=CC(=O)Nc1cccc(Oc2nc(Nc3ccc(N4CCN(C)CC4)cc3)nc3ccoc23)c1` showed a concentration for 50% growth inhibition (GI50) of 100 to 1000 nM.

A word on the IC50: it is the concentration that inhibits the measured activity by half. In general, GI50 refers to the concentration giving 50% growth inhibition. A lower GI50 goes with more potent growth inhibition.
